The record followed here is patent US12077531B2, “Imidazopyridinone compound” (KISSEI PHARMACEUTICAL CO., LTD., priority 2018, dated 2024).

Where a name gives a salt, the structure may show the parent alone.

The target of this assay is human PHD2184-418 (Homo sapiens (Human), UniProt Q9GZT9). Description: PHD2 inhibitory test (fluorescence polarization, binding between PHD2 and HIF-1α). Conditions: for IC50: human PHD2184-418, FITC-labeled HIF-1α556-574, 2 μM 2-oxoglutarate, 37° C. 60 minutes; for inhibition at 100 µM: read-out: inhibition rate at the compound concentration of 100 μM (numerals with *), compound concentration 100 μM. The method, then: Test Example 1 PHD2 Inhibitory Test
(1) Expression and Preparation of Human PHD2184-418
Human PHD2184-418 containing amino acid residues 184 to 418 of the protein represented by CAC42509 (GenBank accession ID) was expressed and prepared by the following method.
An expression construct of human PHD2184-418 containing N-terminal histidine tag was introduced into pET-30a (+) vector, and the sequence was confirmed. This vector was introduced into BL21 (DE3) strain and cultured at 37° C. in LB medium containing antibiotics. After culturing, a cell lysis solution was added to the cells, and then the cells were disrupted by sonication. The disrupted suspension was centrifuged and the supernatant was purified by Ni column to give human PHD2184-418.
Human HIF-1α556-574 (FITC-labeled HIF-1α556-574), containing N-terminal FITC-Ahx, containing amino acid residues 556 to 574 (partial peptide) of HIF-1α was used as a substrate. Using FITC-labeled HIF-1α556-574, the competitive inhibition between 2-oxoglutarate and test compounds (PHD inhibitor) was evaluated based on the change in fluorescence polarization by the following method.
An enzyme (human PHD2184-418) and the substrate were diluted with an assay buffer (pH 7.4) containing 10 mM HEPES, 150 mM NaCl, 10 μM MnCl2-4H2O, 2 μM 2-oxoglutarate and 0.05% Tween-20. Test compounds were diluted with DMSO. Test compounds and human PHD2184-418 was added to the 384-well plate (Corning, black, opaque bottom) in advance. The reaction was started by the addition of FITC-labeled HIF-1α556-574. After incubating at 37° C. for 60 minutes, fluorescence polarization (excitation wavelength: 470 nm, fluorescence wavelength: 530 nm) was measured by PHERAstar FSX (BMG Labtech). Fluorescence polarization of each well was measured, and human PHD2 binding inhibitory activity of test compounds was calculated based on the value of test compound-free group.

Sequence of human PHD2184-418 (Q9GZT9 184-418): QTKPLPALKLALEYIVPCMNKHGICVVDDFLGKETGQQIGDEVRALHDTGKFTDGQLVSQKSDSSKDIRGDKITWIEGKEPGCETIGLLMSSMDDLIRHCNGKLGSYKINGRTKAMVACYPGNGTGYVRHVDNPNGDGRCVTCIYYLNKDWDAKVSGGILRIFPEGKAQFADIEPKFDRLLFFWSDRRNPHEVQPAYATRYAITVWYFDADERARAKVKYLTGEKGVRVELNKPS

Broadly, the IC50 is the midpoint of a concentration-inhibition curve. With `Cn1c(C(=O)O)cnc1CN1CC[C@H](n2c(=O)n(-c3ccc(OC(F)(F)F)cc3)c3cccnc32)C1` [Example 62, (S)-1-Methyl-2-((3-(2-oxo-1-(4-(trifluoromethoxy)phenyl)-1,2-dihydro-3H-imidazo[4,5-b]pyridin-3-yl)pyrrolidin-1-yl)methyl)-1H-imidazole-5-carboxylic acid], the IC50 came out at 1850 nM.
The same measure, in the same setting: then `Cn1c(C(=O)O)cnc1CN1CC[C@H](n2c(=O)n(C3CCC(c4ccccc4)CC3)c3cccnc32)C1` (stereo partly drawn) [Example 68, (S)-1-Methyl-2-((3-(2-oxo-1-(4-phenylcyclohexyl)-1,2-dihydro-3H-imidazo[4,5-b]pyridin-3-yl)pyrrolidin-1-yl)methyl)-1H-imidazole-5-carboxylic acid], with 8150 nM; and `Cc1cccnc1CN1CC[C@H](n2c(=O)n(-c3ccc(-c4ccccc4)cc3)c3cccnc32)C1` [Example 1, (S)-1-([1,1′-Biphenyl]-4-yl)-3-(1-((3-methylpyridin-2-yl)methyl)pyrrolidin-3-yl)-1,3-dihydro-2H-imidazo[4,5-b]pyridin-2-one], with 8430 nM; and `O=c1n(-c2ccc(-c3ccccc3)cc2)c2cccnc2n1[C@H]1CCN(Cc2c[nH]cn2)C1` [Example 5, (S)-3-(1-((1H-Imidazol-4-yl)methyl)pyrrolidin-3-yl)-1-([1,1′-biphenyl]-4-yl)-1,3-dihydro-2H-imidazo[4,5-b]pyridin-2-one], with 2980 nM.
On the same count and under the same terms, then `O=C(O)c1ccnc(CN2CC[C@H](n3c(=O)n(-c4ccc(-c5ccc(O)c(C(=O)O)c5)nc4)c4cccnc43)C2)c1` [Example 52, (S)-2-((3-(1-(6-(3-Carboxy-4-hydroxyphenyl)pyridin-3-yl)-2-oxo-1,2-dihydro-3H-imidazo[4,5-b]pyridin-3-yl)pyrrolidin-1-yl)methyl)isonicotinic acid], with 280 nM.
Same read-out and setting: then `Cn1c(C(=O)O)cnc1CN1CC[C@H](n2c(=O)n(-c3ccc(Cl)cc3)c3cccnc32)C1` [Example 59, (S)-2-((3-(1-(4-Chlorophenyl)-2-oxo-1,2-dihydro-3H-imidazo[4,5-b]pyridin-3-yl)pyrrolidin-1-yl)methyl)-1-methyl-1H-imidazole-5-carboxylic acid], with 180 nM.
`Cn1ccnc1CN1CC[C@H](n2c(=O)n(-c3ccc(-c4ccc(O)c(C(=O)O)c4)cc3)c3cccnc32)C1` [Example 42, (S)-4-Hydroxy-4′-(3-(1-((1-methyl-1H-imidazol-2-yl)methyl)pyrrolidin-3-yl)-2-oxo-2,3-dihydro-1H-imidazo[4,5-b]pyridin-1-yl)-[1,1′-biphenyl]-3-carboxylic acid] had an IC50 of 320 nM.
On the same count and under the same terms, then `Cn1ccnc1CN1CC(n2c(=O)n(-c3ccc(-c4ccccc4)cc3)c3cccnc32)C1` [Example 13, 1-([1,1′-Biphenyl]-4-yl)-3-(1-((1-methyl-1H-imidazol-2-yl)methyl)azetidin-3-yl)-1,3-dihydro-2H-imidazo[4,5-b]pyridin-2-one], with 120 nM; and `Cn1c(C(=O)O)cnc1CN1CC[C@H](n2c(=O)n(-c3cnc4ccccc4c3)c3cccnc32)C1` [Example 66, (S)-1-Methyl-2-((3-(2-oxo-1-(quinolin-3-yl)-1,2-dihydro-3H-imidazo[4,5-b]pyridin-3-yl)pyrrolidin-1-yl)methyl)-1H-imidazole-5-carboxylic acid], with 1170 nM; and `Cn1c(C(=O)O)cnc1CN1CC[C@H](n2c(=O)n(-c3ccc(C(F)(F)F)cc3)c3cccnc32)C1` [Example 63, (S)-1-Methyl-2-((3-(2-oxo-1-(4-(trifluoromethyl)phenyl)-1,2-dihydro-3H-imidazo[4,5-b]pyridin-3-yl)pyrrolidin-1-yl)methyl)-1H-imidazole-5-carboxylic acid], with 1920 nM.
The same measure, in the same setting: then `Cn1c(C(=O)O)cnc1CN1CC[C@H](n2c(=O)n(-c3ccc(C(=O)NCC(=O)O)nc3)c3cccnc32)C1` [Example 78, (S)-2-((3-(1-(6-((Carboxymethyl)carbamoyl)pyridin-3-yl)-2-oxo-1,2-dihydro-3H-imidazo[4,5-b]pyridin-3-yl)pyrrolidin-1-yl)methyl)-1-methyl-1H-imidazole-5-carboxylic acid], with 11000 nM.
Compound `Cc1cccnc1CN1CC[C@H](n2c(=O)n(-c3ccc(C(=O)NCC(=O)O)cc3)c3cccnc32)C1` [Example 75, (S)-(4-(3-(1-((3-Methylpyridin-2-yl)methyl)pyrrolidin-3-yl)-2-oxo-2,3-dihydro-1H-imidazo[4,5-b]pyridin-1-yl)benzoyl)glycine] had an IC50 of 99900 nM.
Consider `Cc1cccnc1CN1CC[C@H](n2c(=O)n(-c3ccc(C(=O)O)cc3)c3cccnc32)C1` [Example 21, (S)-4-(3-(1-((3-Methylpyridin-2-yl)methyl)pyrrolidin-3-yl)-2-oxo-2,3-dihydro-1H-imidazo[4,5-b]pyridin-1-yl)benzoic acid hydrochloride], for which the inhibition at 100 µM came out at 39%.
As to `O=c1n(-c2ccc(-c3ccccc3)cc2)c2cccnc2n1[C@H]1CCN(Cc2ncccc2O)C1` [Example 8, (S)-1-([1,1′-Biphenyl]-4-yl)-3-(1-((3-hydroxypyridin-2-yl)methyl)pyrrolidin-3-yl)-1,3-dihydro-2H-imidazo[4,5-b]pyridin-2-one], the inhibition at 100 µM worked out at 29%.
Compound `Cn1c(C(=O)O)cnc1CN1CC[C@H](n2c(=O)n(-c3ccc([N+](=O)[O-])cc3)c3cccnc32)C1` [Example 65, (S)-1-Methyl-2-((3-(1-(4-nitrophenyl)-2-oxo-1,2-dihydro-3H-imidazo[4,5-b]pyridin-3-yl)pyrrolidin-1-yl)methyl)-1H-imidazole-5-carboxylic acid] gave an IC50 of 2400 nM.
For `Cn1c(C(=O)O)cnc1CN1CCC(C)(n2c(=O)n(-c3ccc(-c4ccccc4)cc3)c3cccnc32)CC1` [Example 23, 2-((4-(1-([1,1′-Biphenyl]-4-yl)-2-oxo-1,2-dihydro-3H-imidazo[4,5-b]pyridin-3-yl)-4-methylpiperidin-1-yl)methyl)-1-methyl-1H-imidazole-5-carboxylic acid], the IC50 was 5500 nM.
Still for that read-out and setting: the same measure for `Cn1ccnc1CN1CCC(n2c(=O)n(-c3ccc(-c4ccccc4)cc3)c3cccnc32)CC1` [Example 12, 1-([1,1′-Biphenyl]-4-yl)-3-(1-((1-methyl-1H-imidazol-2-yl)methyl)piperidin-4-yl)-1,3-dihydro-2H-imidazo[4,5-b]pyridin-2-one]: 4950 nM; for `Cn1c(C(=O)O)cnc1CN1CC[C@H](n2c(=O)n(-c3ccc(-c4ccccc4)cc3)c3cccnc32)C1` [Example 86, (S)-2-((3-(1-([1,1′-Biphenyl]-4-yl)-2-oxo-1,2-dihydro-3H-imidazo[4,5-b]pyridin-3-yl)pyrrolidin-1-yl)methyl)-1-methyl-1H-imidazole-5-carboxylic acid]: 270 nM.
The same measure, in the same setting: then `Cc1cc(-c2ccc(C(=O)O)cc2)ccc1-n1c(=O)n([C@@H]2CCN(Cc3nccn3C)C2)c2ncccc21` [Example 48, (R)-3′-Methyl-4′-(3-(1-((1-methyl-1H-imidazol-2-yl)methyl)pyrrolidin-3-yl)-2-oxo-2,3-dihydro-1H-imidazo[4,5-b]pyridin-1-yl)-[1,1′-biphenyl]-4-carboxylic acid], with 350 nM.
Still for that read-out and setting: then `Cn1ccnc1CN1CC[C@H](n2c(=O)n(-c3ccc(-c4ccncc4)cc3)c3cccnc32)C1` [Example 36, (S)-3-(1-((1-Methyl-1H-imidazol-2-yl)methyl)pyrrolidin-3-yl)-1-(4-(pyridin-4-yl)phenyl)-1,3-dihydro-2H-imidazo[4,5-b]pyridin-2-one hydrochloride], with 1510 nM; and `Cc1cc(-c2ccccc2)ccc1-n1c(=O)n([C@@H]2CCN(Cc3nccn3C)C2)c2ncccc21` [Example 30, (R)-3-(1-((1-Methyl-1H-imidazol-2-yl)methyl)pyrrolidin-3-yl)-1-(3-methyl-[1,1′-biphenyl]-4-yl)-1,3-dihydro-2H-imidazo[4,5-b]pyridin-2-one], with 3480 nM; and `Cn1c(C(=O)O)cnc1CN1CC[C@H](n2c(=O)n(-c3cccc(-c4ccccc4)c3)c3cccnc32)C1` [Example 54, (S)-2-((3-(1-([1,1′-Biphenyl]-3-yl)-2-oxo-1,2-dihydro-3H-imidazo[4,5-b]pyridin-3-yl)pyrrolidin-1-yl)methyl)-1-methyl-1H-imidazole-5-carboxylic acid], with 770 nM.
`Cn1ccnc1CN1CC[C@H](n2c(=O)n(-c3ccccc3)c3cccnc32)C1` [Example 11, (S)-3-(1-((1-Methyl-1H-imidazol-2-yl)methyl)pyrrolidin-3-yl)-1-phenyl-1,3-dihydro-2H-imidazo[4,5-b]pyridin-2-one hydrochloride] registered an IC50 of 85400 nM.
